# PMC7866079, “Investigation of Receptor Heteromers Using NanoBRET Ligand Binding” (International Journal of Molecular Sciences, 2021)
# Tests used:
# AT1-β2AR heteromer = target: T1, AT1-β2AR heteromer (Homo sapiens, UniProt P07550); assay: NanoBRET saturation ligand binding, Receptor-HIT configuration, cells expressing Nluc-AT1 + β2AR; details: mean ± SEM, n = 8, BODIPY-propranolol saturation, non-specific binding with 10 μM propranolol, read-out: Kd (affinity of binding to AT1-β2AR heteromers)
# T1 construct: expressed in transfected cells; host or cells: HEK293FT, transient cotransfection
# Protocol: (§1) All individual experiments were conducted with duplicate wells.
# (§2) All data were presented and analyzed using GraphPad Prism 8.0. Saturation binding data were fitted with one-site nonlinear regression for specific binding. Competition binding data were fitted using logarithmic nonlinear regression (three parameter). Statistical analysis was performed as described in the relevant figure/table legends or in the text, with p < 0.05 considered significant.
# β2AR = target: T2, β2AR (Homo sapiens, UniProt P07550); assay: NanoBRET saturation ligand binding, cells expressing Nluc-β2AR
# T2 construct: host or cells: HEK293FT, transient transfection
# Protocol: as §1, §2
# AT1 receptor = target: T3, AT1 receptor (Homo sapiens, UniProt P30556); assay: NanoBRET competition binding of TAMRA-AngII, cells expressing Nluc-AT1; details: various concentrations of TAMRA-AngII, increasing concentrations of competitor
# T3 construct: host or cells: HEK293FT, transient transfection
# T3 sequence (P30556 1-359): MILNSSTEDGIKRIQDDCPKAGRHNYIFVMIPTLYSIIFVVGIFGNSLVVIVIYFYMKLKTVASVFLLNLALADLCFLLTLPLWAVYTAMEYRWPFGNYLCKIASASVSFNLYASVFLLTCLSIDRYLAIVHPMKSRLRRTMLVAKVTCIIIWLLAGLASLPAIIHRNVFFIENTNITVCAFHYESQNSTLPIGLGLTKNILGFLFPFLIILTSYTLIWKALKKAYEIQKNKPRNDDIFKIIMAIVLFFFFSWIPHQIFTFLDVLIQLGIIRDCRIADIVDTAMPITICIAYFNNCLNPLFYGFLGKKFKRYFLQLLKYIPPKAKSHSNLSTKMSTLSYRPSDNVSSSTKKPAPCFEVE
# Protocol: Figure 8 Competition binding of TAMRA-AngII to the AT1 receptor and the AT1-AT2 heteromer.
# The relative BRET ratio was calculated by normalizing the data, as described in the figure legends. All individual experiments were conducted with duplicate wells.
# T2 sequence (P07550 whole entry): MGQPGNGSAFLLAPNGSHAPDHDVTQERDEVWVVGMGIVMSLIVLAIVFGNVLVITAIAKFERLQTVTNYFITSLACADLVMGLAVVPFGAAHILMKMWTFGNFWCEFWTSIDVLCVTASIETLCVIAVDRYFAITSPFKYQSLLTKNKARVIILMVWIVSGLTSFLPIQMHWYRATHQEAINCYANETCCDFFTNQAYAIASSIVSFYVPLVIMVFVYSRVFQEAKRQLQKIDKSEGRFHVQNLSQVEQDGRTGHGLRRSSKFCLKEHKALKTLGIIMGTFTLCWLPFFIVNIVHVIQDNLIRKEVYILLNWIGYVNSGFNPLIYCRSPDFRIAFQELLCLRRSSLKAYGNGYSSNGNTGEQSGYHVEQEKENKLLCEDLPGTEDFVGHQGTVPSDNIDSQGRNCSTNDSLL
# T1 sequence (P07550 whole entry, one chain of several): as the sequence (P07550 whole entry) above
SMILES,Kd (AT1-β2AR heteromer) [nM],"specific binding to Nluc-β2AR (β2AR; cells expressing Nluc-β2AR only, presence or absence of 10 μM propranolol)","Kd (β2AR; mean ± SEM, n = 4, cells expressing Nluc-β2AR, BODIPY-propranolol saturation, non-specific binding with 10 μM propranolol, read-out: Kd (affinity of binding to β2ARs)) [nM]",displacement of TAMRA-AngII bound to Nluc-AT1 (AT1 receptor)
CC[C@H](C)[C@H](NC(=O)[C@H](Cc1ccc(O)cc1)NC(=O)[C@@H](NC(=O)[C@H](CCCNC(=N)N)NC(=O)[C@H](CC(=O)O)NC(=O)CCCCCNC(=O)COc1ccc(/C=C/c2ccc3n2[B-](F)(F)[N+]2=C(c4cccs4)C=CC2=C3)cc1)C(C)C)C(=O)N[C@@H](Cc1c[nH]cn1)C(=O)N1CCC[C@H]1C(=O)N[C@@H](Cc1ccccc1)C(=O)O [BODIPY-AngII],8.8 ± 4,no specific binding,3.9 ± 0.5,–
Cc1cc(Cn2cnc3c2C[C@@H](C(=O)O)N(C(=O)C(c2ccccc2)c2ccccc2)C3)ccc1N(C)C [PD 123319],–,–,–,unable to see any displacement
